ChEMBL document CHEMBL3885881, “DrugMatrix”

Species: Rattus norvegicus
Test: DrugMatrix - Regimen: Daily Repeat
Format: toxicity, organism-based, Sprague-Dawley
Set-up: regimen Daily Repeat, gender Male, age 6-8 weeks
Conditions: in vivo, po, route oral GAVAGE, vehicle 100 % WATER; for ABSOLUTE BASOPHIL / ABSOLUTE EOSINOPHIL / ABSOLUTE LYMPHOCYTE / ABSOLUTE MONOCYTE / ABSOLUTE SEGMENTED NEUTROPHIL / BASOPHIL / EOSINOPHIL / ERYTHROCYTE COUNT / HEMATOCRIT / HEMOGLOBIN / LEUKOCYTE COUNT / LYMPHOCYTE / MEAN CORPUSCULAR HEMOGLOBIN / MEAN CORPUSCULAR HEMOGLOBIN CONCENTRATION / MEAN CORPUSCULAR VOLUME / MONOCYTE / NEUTROPHIL / NUCLEATED RED BLOOD CELLS / PLATELET COUNT: tissue Blood; for ALANINE AMINOTRANSFERASE / ALBUMIN / ALKALINE PHOSPHATASE / ASPARTATE AMINOTRANSFERASE / BLOOD UREA NITROGEN / CARBON DIOXIDE / CHLORIDE / CHOLESTEROL / CREATINE PHOSPHOKINASE / CREATININE / GLUCOSE / LACTATE DEHYDROGENASE / LIPASE / PHOSPHORUS / POTASSIUM / SODIUM / TOTAL BILIRUBIN / TOTAL PROTEIN / URIC ACID: tissue Plasma
[1] = 0 mg/kg, 72 h, dose level Control, time 3 day
[2] = 0 mg/kg, 120 h, dose level Control, time 5 day
[3] = 58 mg/kg, 72 h, dose level Low, time 3 day

## NC12CC3CC(CC(C3)C1)C2 [AMANTADINE]
[1]
  ABSOLUTE BASOPHIL: 0 CELLS/uL
  ABSOLUTE EOSINOPHIL: 58.83 CELLS/uL
  ABSOLUTE LYMPHOCYTE: 11823.5 CELLS/uL
  ABSOLUTE MONOCYTE: 169 CELLS/uL
  ABSOLUTE SEGMENTED NEUTROPHIL: 815.33 CELLS/uL
  BASOPHIL: 0%
  EOSINOPHIL: 0.5%
  ERYTHROCYTE COUNT: 5.52 x10E6/uL
  HEMATOCRIT: 35.77%
  HEMOGLOBIN: 14.28 G/DL
  LEUKOCYTE COUNT: 12.87 x10E3/uL
  LYMPHOCYTE: 91.67%
  MEAN CORPUSCULAR HEMOGLOBIN: 25.92 pg
  MEAN CORPUSCULAR HEMOGLOBIN CONCENTRATION: 39.95 G/DL
  MEAN CORPUSCULAR VOLUME: 64.85 fL
  MONOCYTE: 1.33%
  NEUTROPHIL: 6.5%
  NUCLEATED RED BLOOD CELLS: 0 /100WBC
  PLATELET COUNT: 1246.17 x10E3/uL
  ALANINE AMINOTRANSFERASE: 66 u/L
  ALBUMIN: 4.25 G/DL
  ALKALINE PHOSPHATASE: 416 u/L
  ASPARTATE AMINOTRANSFERASE: 106.17 u/L
  BLOOD UREA NITROGEN: 12.67 mg/dL
  CARBON DIOXIDE: 31.83 mmol/L
  CHLORIDE: 102.5 MEQ/L
  CHOLESTEROL: 69 mg/dL
  CREATINE PHOSPHOKINASE: 601.83 u/L
  CREATININE: 0.18 mg/dL
  GLUCOSE: 154.5 mg/dL
  LACTATE DEHYDROGENASE: 301.83 u/L
  LIPASE: 11.17 u/L
  PHOSPHORUS: 12.08 mg/dL
  POTASSIUM: 6.12 MEQ/L
  SODIUM: 145.2 MEQ/L
  TOTAL BILIRUBIN: 0.17 mg/dL
  TOTAL PROTEIN: 6.1 G/DL
  URIC ACID: 1.57 mg/dL
[2]
  ABSOLUTE BASOPHIL: 0 CELLS/uL
  ABSOLUTE EOSINOPHIL: 19.33 CELLS/uL
  ABSOLUTE LYMPHOCYTE: 12577.83 CELLS/uL
  ABSOLUTE MONOCYTE: 106.33 CELLS/uL
  ABSOLUTE SEGMENTED NEUTROPHIL: 896.5 CELLS/uL
  BASOPHIL: 0%
  EOSINOPHIL: 0.17%
  ERYTHROCYTE COUNT: 5.84 x10E6/uL
  HEMATOCRIT: 36.88%
  HEMOGLOBIN: 14.48 G/DL
  LEUKOCYTE COUNT: 13.6 x10E3/uL
  LYMPHOCYTE: 92.17%
  MEAN CORPUSCULAR HEMOGLOBIN: 24.85 pg
  MEAN CORPUSCULAR HEMOGLOBIN CONCENTRATION: 39.3 G/DL
  MEAN CORPUSCULAR VOLUME: 63.23 fL
  MONOCYTE: 0.83%
  NEUTROPHIL: 6.83%
  NUCLEATED RED BLOOD CELLS: 0 /100WBC
  PLATELET COUNT: 1223.5 x10E3/uL
  ALANINE AMINOTRANSFERASE: 55.33 u/L
  ALBUMIN: 4.08 G/DL
  ALKALINE PHOSPHATASE: 355.5 u/L
  ASPARTATE AMINOTRANSFERASE: 87.67 u/L
  BLOOD UREA NITROGEN: 15.33 mg/dL
  CARBON DIOXIDE: 33.83 mmol/L
  CHLORIDE: 99.67 MEQ/L
  CHOLESTEROL: 72.17 mg/dL
  CREATINE PHOSPHOKINASE: 268.33 u/L
  CREATININE: 0.15 mg/dL
  GLUCOSE: 152.5 mg/dL
  LACTATE DEHYDROGENASE: 212.67 u/L
  LIPASE: 10.83 u/L
  PHOSPHORUS: 11.65 mg/dL
  POTASSIUM: 6.73 MEQ/L
  SODIUM: 142.43 MEQ/L
  TOTAL BILIRUBIN: 0.23 mg/dL
  TOTAL PROTEIN: 6.07 G/DL
  URIC ACID: 1.7 mg/dL
[3]
  ABSOLUTE BASOPHIL: 0 CELLS/uL
  ABSOLUTE EOSINOPHIL: 0 CELLS/uL
  ABSOLUTE LYMPHOCYTE: 14460 CELLS/uL
  ABSOLUTE MONOCYTE: 391.33 CELLS/uL
  ABSOLUTE SEGMENTED NEUTROPHIL: 1148.67 CELLS/uL
  BASOPHIL: 0%
  EOSINOPHIL: 0%
  ERYTHROCYTE COUNT: 5.53 x10E6/uL
  HEMATOCRIT: 35.03%
  HEMOGLOBIN: 14 G/DL
  LEUKOCYTE COUNT: 16 x10E3/uL
  LYMPHOCYTE: 90%
  MEAN CORPUSCULAR HEMOGLOBIN: 25.33 pg
  MEAN CORPUSCULAR HEMOGLOBIN CONCENTRATION: 40 G/DL
  MEAN CORPUSCULAR VOLUME: 63.37 fL
  MONOCYTE: 2.33%
  NEUTROPHIL: 7.67%
  NUCLEATED RED BLOOD CELLS: 0 /100WBC
  PLATELET COUNT: 1206.67 x10E3/uL
  ALANINE AMINOTRANSFERASE: 47.67 u/L
  ALBUMIN: 4.17 G/DL
  ALKALINE PHOSPHATASE: 377.33 u/L
  ASPARTATE AMINOTRANSFERASE: 90 u/L
  BLOOD UREA NITROGEN: 13.33 mg/dL
  CARBON DIOXIDE: 31.67 mmol/L
  CHLORIDE: 102.33 MEQ/L
  CHOLESTEROL: 67 mg/dL
  CREATINE PHOSPHOKINASE: 444.67 u/L
  CREATININE: 0.13 mg/dL
  GLUCOSE: 137.33 mg/dL
  LACTATE DEHYDROGENASE: 367.33 u/L
  LIPASE: 11.67 u/L
  PHOSPHORUS: 12.1 mg/dL
  POTASSIUM: 6.36 MEQ/L
  SODIUM: 145.43 MEQ/L
  TOTAL BILIRUBIN: 0.17 mg/dL
  TOTAL PROTEIN: 5.9 G/DL
  URIC ACID: 1.6 mg/dL
